Source: patent US7622490B2, “Broadspecturm 2-amino-benzoxazole sulfonamide HIV protease inhibitors” (Tibotec Pharmaceuticals, Ltd., priority 2001, dated 2009)

Assays:
Assay type in all cases: cell-based
HIV strain F = assay: Cellular anti-HIV assay, clinically isolated mutant strain F; conditions: FR=EC50(mutant strain)/EC50(HIV-I strain LAI); MT4 cells
Description: (§1) HIV- or mock-infected MT4 cells were incubated for five days in the presence of various concentrations of the inhibitor. At the end of the incubation period, all HIV-infected cells have been killed by the replicating virus in the control cultures in the absence of any inhibitor. Cell viability is measured by measuring the concentration of MTT, a yellow, water soluble tetrazolium dye that is converted to a purple, water insoluble formazan in the mitochondria of living cells only. Upon solubilization of the resulting formazan crystals with isopropanol, the absorbance of the solution is monitored at 540 nm. The values correlate directly to the number of living cells remaining in the culture at the completion of the five day incubation. The inhibitory activity of the compound was monitored on the virus-infected cells and was expressed as EC50 and EC90. These values represent the amount of the compound required to protect 50% and 90%, respectively, of the cells from the cytopathogenic effect of the virus. […] Whetever results are reported as e.g. pEC50 or pCC50 values, the result is expressed as the negative logarithm of the result expressed as EC50 or CC50 respectively. […]
(§2) As a measure of the broad spectrum activity of the present compounds, the fold resistance (FR), defined as FR=EC50(mutant strain)/EC50(HIV-I strain LAI), was determined.

HIV strain B = assay: Cellular anti-HIV assay, clinically isolated mutant strain B; conditions: FR=EC50(mutant strain)/EC50(HIV-I strain LAI); MT4 cells
Description: as §1, §2

HIV strain D = assay: Cellular anti-HIV assay, clinically isolated mutant strain D; conditions: FR=EC50(mutant strain)/EC50(HIV-I strain LAI); MT4 cells
Description: as §1, §2

HIV-1 strain LAI = assay: Cellular anti-HIV assay (MTT) in MT4 cells, wild type strain; conditions: five days
Description: The compounds of the present invention were examined for anti-viral activity in a cellular assay. […] The cellular assay was performed according to the following procedure.
HIV- or mock-infected MT4 cells were incubated for five days in the presence of various concentrations of the inhibitor. At the end of the incubation period, all HIV-infected cells have been killed by the replicating virus in the control cultures in the absence of any inhibitor. Cell viability is measured by measuring the concentration of MTT, a yellow, water soluble tetrazolium dye that is converted to a purple, water insoluble formazan in the mitochondria of living cells only. Upon solubilization of the resulting formazan crystals with isopropanol, the absorbance of the solution is monitored at 540 nm. The values correlate directly to the number of living cells remaining in the culture at the completion of the five day incubation. The inhibitory activity of the compound was monitored on the virus-infected cells and was expressed as EC50 and EC90. […] Whetever results are reported as e.g. pEC50 or pCC50 values, the result is expressed as the negative logarithm of the result expressed as EC50 or CC50 respectively.
as §2

HIV strain E = assay: Cellular anti-HIV assay, clinically isolated mutant strain E; conditions: FR=EC50(mutant strain)/EC50(HIV-I strain LAI); MT4 cells
Description: as §1, §2

HIV strain C = assay: Cellular anti-HIV assay, clinically isolated mutant strain C; conditions: FR=EC50(mutant strain)/EC50(HIV-I strain LAI); MT4 cells
Description: as §1, §2

mock-infected MT4 cells = assay: Toxicity on mock-infected MT4 cells (MTT); conditions: pCC50 value as determined with mock transfected cells; five days
Description: HIV- or mock-infected MT4 cells were incubated for five days in the presence of various concentrations of the inhibitor. At the end of the incubation period, all HIV-infected cells have been killed by the replicating virus in the control cultures in the absence of any inhibitor. Cell viability is measured by measuring the concentration of MTT, a yellow, water soluble tetrazolium dye that is converted to a purple, water insoluble formazan in the mitochondria of living cells only. Upon solubilization of the resulting formazan crystals with isopropanol, the absorbance of the solution is monitored at 540 nm. The values correlate directly to the number of living cells remaining in the culture at the completion of the five day incubation. The inhibitory activity of the compound was monitored on the virus-infected cells and was expressed as EC50 and EC90. These values represent the amount of the compound required to protect 50% and 90%, respectively, of the cells from the cytopathogenic effect of the virus. […] Whetever results are reported as e.g. pEC50 or pCC50 values, the result is expressed as the negative logarithm of the result expressed as EC50 or CC50 respectively.
as §2

HIV strain A = assay: Cellular anti-HIV assay, clinically isolated mutant strain A; conditions: FR=EC50(mutant strain)/EC50(HIV-I strain LAI); MT4 cells
Description: as §1, §2

Compound | FR towards mutant F (HIV strain F) | FR towards mutant B (HIV strain B) | FR towards mutant D (HIV strain D) | WT (pEC50) (HIV-1 strain LAI) | FR towards mutant E (HIV strain E) | FR towards mutant C (HIV strain C) | Tox (pCC50) (mock-infected MT4 cells) | FR value towards mutant A (HIV strain A)
CNc1nc2ccc(S(=O)(=O)N(CC(C)C)CC(O)C(Cc3ccccc3)NC(=O)OC3COC4OCCNC34)cc2o1 (mixture of isomers) [Compound 43] | 14 | 1.6 | 0.62 | 7.32 | 0.59 | 0.8 | 4 | 3.3
CNc1nc2ccc(S(=O)(=O)N(CC(C)C)CC(O)C(Cc3ccccc3)NC(=O)OC3COC4OCCNC34)cc2o1 (mixture of isomers) [Compound 44] | 4.9 | 1.3 | 0.56 | 7.36 | 0.56 | 0.93 | 4 | 1.6
